Measurements: patent US6489327B1, “Tryptase inhibitors” (Max-Planck-Gesellschaft zur Fordrungder Wisenschaften, e.V., priority 1998, dated 2002)
Counter-ions that a name gives are not always drawn.

Molecular target: human tryptase
Test: Inhibition of human tryptase: apparent dissociation constant Kiapp, chromogenic substrate tos-Gly-Pro-Arg-pNA
Assay type: biochemical
Conditions: apparent dissociation constant in presence of substrate; human tryptase from lung tissue, 50 μg of heparin/ml
Excerpt: The documented pathophysiological effects of mast cell tryptase are brought about directly by the enzymic activity of the protease. Accordingly, they are reduced or blocked by inhibitors which inhibit the enzymatic activity of the tryptase. The equilibrium dissociation constant Ki of the enzyme-inhibitor complex is a suitable measure of the affinity of a reversible inhibitor for the target protease. This Ki value can be determined by measuring the effect of the inhibitor on the tryptase-induced cleavage of a chromogenic peptide-p-nitroanilide substrate or a fluorogenic peptide-aminomethylcoumarin substrate.
The dissociation constants of the tryptase-inhibitor complexes are determined under equilibrium conditions in accordance with the general recommendations of Bieth (Bieth J G, Pathophysiological interpretation of kinetic constants of protease inhibitors, Bull. Europ. Physiopath. Resp. 16:183-195, 1980) and the methods of Sommerhoff et al. (Sommerhoff C P et al., A. Kazal-type inhibitor of human mast cell tryptase: Isolation from the medical leech Hirudo medicinalis, characterization, and sequence analysis, Biol. Chem. Hoppe-Seyler 375: 685-694, 1994).
Human tryptase is prepared in a pure state from lung tissue; the specific activity of the isolated protease, determined by means of titration, is normally 85% of the theoretical value. Constant quantities of tryptase are incubated with increasing quantities of the inhibitors in the presence of 50 μg of heparin/ml for stabilizing the protease. After the equilibrium has been established between the reaction partners, the remaining enzyme activity is determined after adding the peptide-p-nitroanilide substrate tos-Gly-Pro-Arg-pNA, the cleavage of which is monitored at 405 nm over a period of 3 min. Alternatively, the residual enzymic activity can also be determined using fluorogenic substrates. The apparent dissociation constants Kiapp (i.e. in the presence of substrate) are subsequently ascertained by nonlinear regression by fitting the enzyme rates to the general equation for reversible inhibitors (Morrison J F, Kinetics of the reversible inhibition of enzyme-catalysed reactions by tight-binding inhibitors, Biochim. Biophys. Acta 185, 269-286, 1969):
V1/V0=1−{Et+lt+Kiapp−[(Et+lt+Kiapp)^2−4Etlt]^½}/2Et
In this equation, V1 and V0 are the rates in the presence and absence of the inhibitor, respectively, and Et and lt are the concentrations of the tryptase and of the inhibitor.
The apparent dissociation constants which were determined for the compounds according to the invention are given in Table A below, in which the numbers of the compounds correspond to the numbers of the compounds in the examples.

SMILES | Ki [nM]
NCc1cccc(C(=O)N2CCN(C(=O)c3cccc(C(=O)N4CCN(C(=O)c5cccc(CN)c5)CC4)n3)CC2)c1 [Compound 1, Pyridine-2,6-dicarbobis[4-(3-aminomethylbenzoyl)-1-piperazide]] | 3000
NCc1cccc(C(=O)NC2CCN(C(=O)c3cccc(C(=O)N4CCC(NC(=O)c5cccc(CN)c5)CC4)n3)CC2)c1 [Compound 11, Pyridine-2,6-dicarbobis[4-(3-aminomethylbenzoylamino)-1-piperidide]] | 30
NCC1CCC(C(=O)NC2CCN(C(=O)c3cccc(C(=O)N4CCC(NC(=O)C5CCC(CN)CC5)CC4)n3)CC2)CC1 (stereo not drawn) [Compound 15, Pyridine-2,6-dicarbobis[4-(4-aminomethylcyclohexylcarbonylamino)-1-piperidide]] | 3000
NCC1CCC(C(=O)N2CCN(C(=O)Nc3ccc(Oc4ccc(NC(=O)N5CCN(C(=O)C6CCC(CN)CC6)CC5)cc4)cc3)CC2)CC1 (stereo not drawn) [Compound 17, Bis{4-[4-(4-aminomethyl)cyclohexanoylpiperazin-1-yl]-carbonyl}-4,4′-diaminodiphenyl ether dihydrochloride] | 22000
NCc1cccc(C(=O)N2CCN(C(=O)Nc3ccc(Oc4ccc(NC(=O)N5CCN(C(=O)c6cccc(CN)c6)CC5)cc4)cc3)CC2)c1 [Compound 21, Bis{4-[4-(3-aminomethyl)benzoylpiperazin-1-yl]-carbonyl}-4,4′-diaminodiphenyl ether dihydrochloride] | 100
NCC1CCC(C(=O)NC2CCN(C(=O)NC3CCC(CC4CCC(NC(=O)N5CCC(NC(=O)C6CCC(CN)CC6)CC5)CC4)CC3)CC2)CC1 (stereo not drawn) [Compound 23, Di{4-[4-(4-aminomethyl)cyclohexanoylamino]piperidin-1-ylcarbamoyl}cyclohexylmethane dihydrochloride] | 800
CC(C)(c1ccc(OCC(=O)NCc2ccc(NC(=N)N)cc2)cc1)c1ccc(OCC(=O)NCc2ccc(NC(=N)N)cc2)cc1 [Compound 31, 2,2-Bis-[4-(4-guanidinylbenzylamino)carbonylmethoxyphenyl]propane dihydroacetate] | 200
CC(C)(c1ccc(OCC(=O)NCC(=O)NCCCCN)cc1)c1ccc(OCC(=O)NCC(=O)NCCCCN)cc1 [Compound 34, 2,2-Bis-[4-(10-amino-3,6-diaza-2,5-dioxodecyloxy)-phenyl]propane dihydrochloride] | 2000
CC(C)(c1ccc(OC(=O)N2CCN(C(=O)NCc3ccc(CN)cc3)CC2)cc1)c1ccc(OC(=O)N2CCN(C(=O)NCc3ccc(CN)cc3)CC2)cc1 [Compound 36, 2,2-Bis-{4-[4-(4-aminomethylbenzylcarbamoyl)-1-piperazinylcarbonyloxy]phenyl}propane dihydrochloride] | 28
